As usually defined, the EC50 is the midpoint of the concentration-response curve. Read a low EC50 as higher potency in that assay.

This note sets out measurements from BindingDB's records for doi:10.7270/Q2TX3CTT (Broad Institute, 2010).

Structures can show the parent of a compound that is named as a salt. A value given as a limit tells only on which side of the number the result lay.

The target in this test is Glycogen synthase kinase-3 beta (Homo sapiens, UniProt P49841). The test can be described thus: concentration-response blocking of human GSK3B – biochemical, luminescence, cell-free homogeneous, retest, dose response (AID 434954).
Sequence of Glycogen synthase kinase-3 beta (P49841 whole entry): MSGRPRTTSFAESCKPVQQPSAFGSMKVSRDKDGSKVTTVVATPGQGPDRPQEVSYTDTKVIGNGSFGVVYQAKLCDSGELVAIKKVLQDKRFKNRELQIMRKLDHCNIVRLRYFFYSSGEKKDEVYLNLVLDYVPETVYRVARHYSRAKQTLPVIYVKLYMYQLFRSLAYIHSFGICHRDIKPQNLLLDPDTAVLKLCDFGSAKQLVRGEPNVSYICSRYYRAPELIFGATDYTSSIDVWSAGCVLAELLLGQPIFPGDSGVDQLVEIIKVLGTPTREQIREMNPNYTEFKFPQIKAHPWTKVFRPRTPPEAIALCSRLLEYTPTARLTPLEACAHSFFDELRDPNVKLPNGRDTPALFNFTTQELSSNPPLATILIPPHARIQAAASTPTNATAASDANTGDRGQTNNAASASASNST
With `CCOC(=O)CSc1ccc2nnc(-c3ccccc3)n2n1` [ethyl 2-[(3-phenyl-[1,2,4]triazolo[4,3-b]pyridazin-6-yl)sulfanyl]acetate], the EC50 came to 44.6 µM.

The molecule `C=CCN=C(NC#N)SCC(=O)c1cccc(OC)c1` [[2-(3-methoxyphenyl)-2-oxidanylidene-ethyl] N-cyano-N'-prop-2-enyl-carbamimidothioate] returned an EC50 of 1.23 µM.

Take `O=C(NN=Cc1cccnc1)c1cc(-c2ccccc2)nc2c(Cl)cccc12` [MLS001230128]: the EC50 was greater than 300 µM.

For `O=c1[nH]c2ccccc2c(=O)n1-c1ccc(Cl)cc1Cl` [3-(2,4-dichlorophenyl)quinazoline-2,4(1H,3H)-dione], the EC50 was greater than 300 µM.

The molecule `COc1ccc(S(=O)(=O)NCC(c2ccc3c(c2)OCO3)N2CCOCC2)cc1` (stereo not given) [N-[2-(1,3-benzodioxol-5-yl)-2-morpholin-4-ylethyl]-4-methoxybenzenesulfonamide] had an EC50 greater than 300 µM.

Consider `CCOc1cc(C2c3c(n[nH]c3C)C(=O)N2c2ccc(Br)cc2)ccc1O` (stereo not given) [SMR000059772], for which the EC50 was greater than 300 µM.

Take `O=c1oc2cc(O)ccc2c2c1CCCC2` [3-hydroxy-7,8,9,10-tetrahydro-6H-benzo[c]chromen-6-one]: the EC50 was greater than 300 µM.

As to `CCCCc1cc(=O)oc2cc(O)cc(O)c12` [4-butyl-5,7-dihydroxy-2H-chromen-2-one], the response was half-maximal at 15.2 µM (EC50).

As to `Cc1ccc(NC2=CC(=O)CC(C)(C)C2)cc1F` [MLS001198284], the EC50 was greater than 300 µM.

As to `CCCCc1cc(=O)oc2cc(C)cc(O)c12`, the EC50 is greater than 300 µM.

Consider `Cc1ccc(Cc2cnc(NC(=O)C3CCCO3)s2)cc1` (stereo not given) [SMR000141246], for which the EC50 worked out at 17.4 µM.

Turning to `CCn1c(SCC(=O)Nc2nccs2)nnc1C1CC1` [2-[(5-cyclopropyl-4-ethyl-1,2,4-triazol-3-yl)sulfanyl]-N-(1,3-thiazol-2-yl)ethanamide], the EC50 is greater than 300 µM.

In the case of `Nc1nc(Nc2ccccc2F)nc(NCCO)c1[N+](=O)[O-]` [2-[6-Amino-2-(2-fluoro-phenylamino)-5-nitro-pyrimidin-4-ylamino]-ethanol], the EC50 came to 15.6 µM.

`O=C1N=C(NCc2ccccc2)SC1=Cc1ccccc1` [MLS000589841] came in with an EC50 greater than 300 µM.

`NC(=O)c1ccc(N2CCCCCC2)c([N+](=O)[O-])c1` [MLS000688695]: the EC50 is greater than 300 µM.

Turning to `CC1=C(C(=O)Nc2ccccc2F)C(c2ccsc2)C2C(=O)CC(C)(C)CC2=N1` (stereo not given) [N-(2-fluorophenyl)-2,7,7-trimethyl-5-oxo-4-(3-thiophenyl)-1,4,6,8-tetrahydroquinoline-3-carboxamide], the EC50 was greater than 300 µM.

For `O=C1N=C(NCc2ccccc2)SC1=Cc1ccc(O)cc1` [SMR000217101], the EC50 came out at 3.04 µM.

As to `Cc1ccccc1NC(=O)CSc1nc(N)c(C#N)c(-c2cccs2)c1C#N` [2-(6-amino-3,5-dicyano-4-thiophen-2-ylpyridin-2-yl)sulfanyl-N-(2-methylphenyl)acetamide], the EC50 was greater than 300 µM.

The molecule `COc1ccc(/C=C2\Sc3ccc(C(=O)NCCN4CCCCCC4)cc3N(C)C2=O)cc1` [(2Z)-N-[2-(azepan-1-yl)ethyl]-2-[(4-methoxyphenyl)methylidene]-4-methyl-3-oxo-1,4-benzothiazine-6-carboxamide] returned an EC50 of 43.3 µM.

Regarding `CCCCC(=O)Nc1ncc(S(=O)(=O)c2ccc([N+](=O)[O-])cc2)s1` [N-[5-(4-nitrophenyl)sulfonyl-2-thiazolyl]pentanamide], the EC50 was greater than 300 µM.

`COc1ccc(-c2nnc3ccc(SCC(N)=O)nn23)cc1OC` [2-[[3-(3,4-dimethoxyphenyl)-[1,2,4]triazolo[4,3-b]pyridazin-6-yl]sulfanyl]ethanamide]: the EC50 was greater than 300 µM.

Turning to `Cc1cc(OCCCn2ccnc2)ccc1[N+](=O)[O-]` [SMR000497363], the EC50 was greater than 300 µM.

Turning to `COc1ccc(OC)c(Nc2oc3cc(=O)ccc-3cc2C(N)=O)c1` [2-[(Z)-2,5-Dimethoxy-phenylimino]-7-hydroxy-2H-chromene-3-carboxylic acid amide], the EC50 was 11.9 µM.

Take `O=C(OCc1ccc(COC(=O)c2ccc(O)cc2)cc1)c1ccc(O)cc1` [SMR000588531]: the EC50 was greater than 300 µM.

On to `Cn1c(SCC(=O)Nc2ccccc2)nc2ccccc2c1=O` [2-(3-Methyl-4-oxo-3,4-dihydro-quinazolin-2-ylsulfanyl)-N-phenyl-acetamide], for which the EC50 is greater than 300 µM.

Molecule `CC(C)=CCc1c(O)cc(O)c2c1O[C@H](c1ccc(O)cc1)CC2=O` gave an EC50 greater than 300 µM.

Molecule `COc1ccc(-c2nn(-c3ccccc3)cc2CN=Nc2ccccn2)cc1OC` [MLS000388893] showed an EC50 of 66.1 µM.

The molecule `CCCN1CCN(CCCNC(=O)Cn2nc(C)n3c(cc4cc(OC)ccc43)c2=O)CC1` [MLS001110985] yielded an EC50 greater than 300 µM.

Molecule `OC(COc1ccc(OCC(O)CN2CCN(Cc3ccccc3)CC2)cc1)CN1CCN(Cc2ccccc2)CC1` (stereo not given) [SMR000473226] gave an EC50 greater than 300 µM.

In the case of `COc1cc(/C=N/NC(=O)c2cccc(Cl)c2)ccc1Oc1ccc([N+](=O)[O-])cn1` [MLS000779574], the EC50 was greater than 300 µM.

The molecule `Cc1cc(C)n2nc(SCC(=O)N(CC(C)C)c3c(N)n(CC(C)C)c(=O)[nH]c3=O)nc2n1` showed an EC50 greater than 300 µM.

`NC(=O)c1ccc(Oc2ccc(Cl)c3ccccc23)c([N+](=O)[O-])c1` [4-(4-chloronaphthalen-1-yl)oxy-3-nitrobenzamide]: the EC50 is greater than 300 µM.

`COc1ccc(CC(=O)N2C[C@H]3C[C@@H](C2)c2cccc(=O)n2C3)cc1` [SMR000646314] came in with an EC50 greater than 300 µM.

In turn, `c1cncc(-c2nc(NCc3ccc4c(c3)OCO4)c3ccccc3n2)c1` [N-(1,3-benzodioxol-5-ylmethyl)-2-(3-pyridinyl)-4-quinazolinamine] showed an EC50 greater than 300 µM.

Molecule `Cc1ccc(NC(=O)NCCCN2CCCC2=O)cc1C` [SMR000677961] gave an EC50 greater than 300 µM.

Turning to `C[O+]=N[CH-]c1ccc(Oc2ccc(C)cc2)c([N+](=O)[O-])c1` [4-(4-methylphenoxy)-3-nitrobenzenecarbaldehyde O-methyloxime], the EC50 is greater than 300 µM.

The molecule `COC(=O)c1c(N)c(C#N)c2n1CCCCC2` [methyl 2-amino-1-cyano-6,7,8,9-tetrahydro-5H-pyrrolo[1,2-a]azepine-3-carboxylate] displayed an EC50 greater than 300 µM.

As for `CC(C)CCn1c(CN2CCN(c3cccc(Cl)c3)CC2)nc2c1c(=O)n(C)c(=O)n2C` [SMR000017148], the EC50 is greater than 300 µM.

As to `O=C(C1=C[C@@H](c2ccc(C(F)(F)F)cc2)C[C@@H](OCCCCO)O1)N1CCN(Cc2ccccc2)CC1` [SMR000389639], the EC50 is greater than 300 µM.

In turn, `CN1CCc2[nH]c3ccc(C(=O)NN)cc3c2C1` [SMR000131639] yielded an EC50 greater than 300 µM.

On to `CCCn1nc(NC(=O)c2cccs2)c2cc3cc(C)ccc3nc21` [SMR000436650], for which the EC50 is greater than 300 µM.

Turning to `CC(=O)Nc1nnc(CSCc2ccc(F)cc2)s1` [N-[5-[(4-fluorophenyl)methylsulfanylmethyl]-1,3,4-thiadiazol-2-yl]acetamide], the EC50 was greater than 300 µM.

The molecule `CNC(=O)NC(=O)CSc1nc(-c2cccs2)c(C#N)c(=O)[nH]1` [2-[(5-cyano-4-oxo-6-thiophen-2-yl-1H-pyrimidin-2-yl)thio]-N-(methylcarbamoyl)acetamide] showed an EC50 of 2.05 µM.

`Cc1ccccc1N(CC(=O)NN=Cc1cc(Br)c(C)o1)S(C)(=O)=O` [N-[(4-bromo-5-methylfuran-2-yl)methylideneamino]-2-(2-methyl-N-methylsulfonylanilino)acetamide]: the EC50 was greater than 300 µM.

As for `CCN(CC)Cc1c(C(=O)NN=Cc2cccnc2)nnn1-c1nonc1N` [1-(4-amino-1,2,5-oxadiazol-3-yl)-5-(diethylaminomethyl)-N-(3-pyridinylmethylideneamino)-4-triazolecarboxamide], the EC50 was determined as 9.17 µM.

For the molecule `COCCCNc1nc(N)c([N+](=O)[O-])c(Nc2ccccc2OC)n1` [4-N-(2-methoxyphenyl)-2-N-(3-methoxypropyl)-5-nitropyrimidine-2,4,6-triamine], the EC50 was 0.231 µM.

In turn, `COC(=O)c1sc(Nc2ccccc2)nc1C` [2-anilino-4-methyl-5-thiazolecarboxylic acid methyl ester] registered an EC50 greater than 300 µM.

The molecule `Cc1ccccc1-c1nnc(SCCOc2ccc3c(C)cc(=O)oc3c2)o1` gave an EC50 greater than 300 µM.

`CC(O)c1cccc(NC2=CC(=O)CC(C)(C)C2)c1` (stereo not given) had a 50% effective concentration (EC50) greater than 300 µM.

Regarding `CC(=O)N1CCc2c(sc(NC(=O)CCS(=O)(=O)c3ccccc3)c2C(N)=O)C1`, the EC50 was determined as 122 µM.

`CSc1ncc(C(=O)Nc2ccccc2C)c(C)n1` showed an EC50 greater than 300 µM.

Molecule `O=NCc1ccc(N2CCCC2)c([N+](=O)[O-])c1` had an EC50 of 5.66 µM.

The molecule `CC(C)N1CCc2c(sc(NC(=O)CCS(=O)(=O)c3ccccc3)c2C(N)=O)C1` [2-[[3-(benzenesulfonyl)-1-oxopropyl]amino]-6-propan-2-yl-5,7-dihydro-4H-thieno[2,3-c]pyridine-3-carboxamide;hydrochloride] yielded an EC50 greater than 300 µM.

For the molecule `CC(=NNC(=O)c1nnn(-c2nonc2N)c1CN1CCc2ccccc21)c1ccccc1O` [MLS001076839], the EC50 was greater than 300 µM.

`COc1ccc2oc3cc(C)[n+]([O-])c(-c4ccc(Br)cc4)c3c2c1` [MLS000588179] had an EC50 greater than 300 µM.

In turn, `COc1cccc2c1cc1c(=O)n(CC(=O)NC3CCCCC3)nc(C)n12` [N-cyclohexyl-2-(9-methoxy-4-methyl-1-oxidanylidene-[1,2,4]triazino[4,5-a]indol-2-yl)ethanamide] showed an EC50 greater than 300 µM.

Molecule `Nc1nc(NCC(=O)O)nc(NC2CCCCC2)c1[N+](=O)[O-]` [2-[[4-azanyl-6-(cyclohexylamino)-5-nitro-pyrimidin-2-yl]amino]ethanoic acid] displayed an EC50 greater than 300 µM.

Turning to `Cc1cn(C2OC(COC(=O)c3ccccc3)C(O)C2O)c(=O)[nH]c1=O` (stereo not given) [benzoic acid [3,4-dihydroxy-5-(5-methyl-2,4-dioxo-1-pyrimidinyl)-2-oxolanyl]methyl ester], the EC50 stood at 19.2 µM.

For `COc1ccc(CCNc2nc(-c3cccnc3)nc3ccccc23)cc1OC` [N-[2-(3,4-dimethoxyphenyl)ethyl]-2-pyridin-3-ylquinazolin-4-amine], the EC50 is greater than 300 µM.

Consider `Cc1ccc(C2c3c(n[nH]c3C)N=C3CC(C)(C)CC(=O)C32)cc1` (stereo not given) [3,7,7-trimethyl-4-(4-methylphenyl)-2,4,6,8-tetrahydro-1H-pyrazolo[3,4-b]quinolin-5-one], for which the EC50 was determined as 9.26 µM.
